Laboratory results: ChEMBL document CHEMBL3885881, “DrugMatrix”

Species on record: Rattus norvegicus
Assay: DrugMatrix - Regimen: Daily Repeat
Assay type: toxicity, organism-based, Sprague-Dawley
Design: regimen Daily Repeat, gender Male, age 6-8 weeks
Settings: in vivo, po, route oral GAVAGE, […]; for HEMOGLOBIN / LYMPHOCYTE / MEAN CORPUSCULAR HEMOGLOBIN CONCENTRATION / MEAN CORPUSCULAR VOLUME / NUCLEATED RED BLOOD CELLS / PLATELET COUNT / ABSOLUTE BASOPHIL / ABSOLUTE EOSINOPHIL / ABSOLUTE LYMPHOCYTE / ABSOLUTE MONOCYTE / ABSOLUTE SEGMENTED NEUTROPHIL / BASOPHIL / EOSINOPHIL / ERYTHROCYTE COUNT / HEMATOCRIT: tissue Blood; for ALANINE AMINOTRANSFERASE / ALBUMIN / ALKALINE PHOSPHATASE / ASPARTATE AMINOTRANSFERASE / BLOOD UREA NITROGEN / CARBON DIOXIDE / CREATINE PHOSPHOKINASE / CREATININE / LACTATE DEHYDROGENASE / TOTAL BILIRUBIN / TOTAL PROTEIN / URIC ACID: tissue Plasma
[1] = 215 mg/kg, 72 h, dose level M2, time 3 day
[2] = 215 mg/kg, 120 h, dose level M2, time 5 day
[3] = 430 mg/kg, 72 h, dose level M3, time 3 day
[4] = 430 mg/kg, 120 h, dose level M3, time 5 day
[5] = 860 mg/kg, 72 h, dose level High, time 3 day
[6] = 860 mg/kg, dose level High, time 7 day

`CC(C)OC(=O)C(C)(C)Oc1ccc(C(=O)c2ccc(Cl)cc2)cc1` [FENOFIBRATE] was tested, and the HEMOGLOBIN [1] was 13.3 G/DL, the LYMPHOCYTE [1] was 89.67% and the “MEAN CORPUSCULAR HEMOGLOBIN CONCENTRATION” value [1] was 39.2 G/DL. For the same compound, the “MEAN CORPUSCULAR VOLUME” value [1] was 61.5 fL, the “NUCLEATED RED BLOOD CELLS” value [1] was 0 /100WBC and the “PLATELET COUNT” value [1] was 1279.67 x10E3/uL. For the same compound, the “ALANINE AMINOTRANSFERASE” value [1] was 84.33 u/L, the ALBUMIN [1] was 4.4 G/DL and the “ALKALINE PHOSPHATASE” value [1] was 436.33 u/L. The “ASPARTATE AMINOTRANSFERASE” value [1] was 108 u/L, the “BLOOD UREA NITROGEN” value [1] was 11.33 mg/dL and the “CARBON DIOXIDE” value [1] was 28.33 mmol/L. The “CREATINE PHOSPHOKINASE” value [1] was 307 u/L, the CREATININE [1] was 0.23 mg/dL and the “LACTATE DEHYDROGENASE” value [1] was 227 u/L. For the same compound, the “TOTAL BILIRUBIN” value [1] was 0.1 mg/dL, the “TOTAL PROTEIN” value [1] was 5.3 G/DL and the “URIC ACID” value [1] was 1.47 mg/dL. For the same compound, the “ABSOLUTE BASOPHIL” value [2] was 0 CELLS/uL, the “ABSOLUTE EOSINOPHIL” value [2] was 0 CELLS/uL and the “ABSOLUTE LYMPHOCYTE” value [2] was 6815.67 CELLS/uL. For the same compound, the “ABSOLUTE MONOCYTE” value [2] was 96.33 CELLS/uL, the “ABSOLUTE SEGMENTED NEUTROPHIL” value [2] was 721.33 CELLS/uL and the BASOPHIL [2] was 0%. For the same compound, the EOSINOPHIL [2] was 0%, the “ERYTHROCYTE COUNT” value [2] was 5.68 x10E6/uL and the HEMATOCRIT [2] was 34.5%. The HEMOGLOBIN [2] was 13.47 G/DL, the LYMPHOCYTE [2] was 90% and the “MEAN CORPUSCULAR HEMOGLOBIN CONCENTRATION” value [2] was 39.07 G/DL. The “MEAN CORPUSCULAR VOLUME” value [2] was 60.77 fL, the “NUCLEATED RED BLOOD CELLS” value [2] was 0 /100WBC and the “PLATELET COUNT” value [2] was 1144.67 x10E3/uL. For the same compound, the “ALANINE AMINOTRANSFERASE” value [2] was 92.67 u/L, the ALBUMIN [2] was 4.8 G/DL and the “ALKALINE PHOSPHATASE” value [2] was 542 u/L. The “ASPARTATE AMINOTRANSFERASE” value [2] was 108.67 u/L, the “BLOOD UREA NITROGEN” value [2] was 9 mg/dL and the “CARBON DIOXIDE” value [2] was 35.67 mmol/L. For the same compound, the “CREATINE PHOSPHOKINASE” value [2] was 436 u/L, the CREATININE [2] was 0.23 mg/dL and the “LACTATE DEHYDROGENASE” value [2] was 185.67 u/L. The “TOTAL BILIRUBIN” value [2] was 0.1 mg/dL, the “TOTAL PROTEIN” value [2] was 5.87 G/DL and the “URIC ACID” value [2] was 0.93 mg/dL. For the same compound, the “ABSOLUTE BASOPHIL” value [3] was 0 CELLS/uL, the “ABSOLUTE EOSINOPHIL” value [3] was 35 CELLS/uL and the “ABSOLUTE LYMPHOCYTE” value [3] was 8585.33 CELLS/uL. The “ABSOLUTE MONOCYTE” value [3] was 165.67 CELLS/uL, the “ABSOLUTE SEGMENTED NEUTROPHIL” value [3] was 847.33 CELLS/uL and the BASOPHIL [3] was 0%. The EOSINOPHIL [3] was 0.33%, the “ERYTHROCYTE COUNT” value [3] was 5.9 x10E6/uL and the HEMATOCRIT [3] was 37.27%. For the same compound, the LYMPHOCYTE [3] was 89.33%, the “MEAN CORPUSCULAR HEMOGLOBIN CONCENTRATION” value [3] was 38.8 G/DL and the “MEAN CORPUSCULAR VOLUME” value [3] was 63.17 fL. For the same compound, the “NUCLEATED RED BLOOD CELLS” value [3] was 0 /100WBC, the “PLATELET COUNT” value [3] was 1091.33 x10E3/uL and the “ALANINE AMINOTRANSFERASE” value [3] was 125.33 u/L. The ALBUMIN [3] was 3.57 G/DL, the “ALKALINE PHOSPHATASE” value [3] was 509.67 u/L and the “ASPARTATE AMINOTRANSFERASE” value [3] was 123.67 u/L. The “BLOOD UREA NITROGEN” value [3] was 12 mg/dL, the “CARBON DIOXIDE” value [3] was 25.67 mmol/L and the “CREATINE PHOSPHOKINASE” value [3] was 211 u/L. The CREATININE [3] was 0.21 mg/dL, the “LACTATE DEHYDROGENASE” value [3] was 138.33 u/L and the “TOTAL BILIRUBIN” value [3] was 0.23 mg/dL. For the same compound, the “TOTAL PROTEIN” value [3] was 4.8 G/DL, the “URIC ACID” value [3] was 0.57 mg/dL and the “ABSOLUTE BASOPHIL” value [4] was 0 CELLS/uL. The “ABSOLUTE EOSINOPHIL” value [4] was 84 CELLS/uL, the “ABSOLUTE LYMPHOCYTE” value [4] was 7042 CELLS/uL and the “ABSOLUTE MONOCYTE” value [4] was 80.5 CELLS/uL. For the same compound, the “ABSOLUTE SEGMENTED NEUTROPHIL” value [4] was 843.5 CELLS/uL, the BASOPHIL [4] was 0% and the EOSINOPHIL [4] was 1%. For the same compound, the “ERYTHROCYTE COUNT” value [4] was 5.34 x10E6/uL, the HEMATOCRIT [4] was 33.8% and the HEMOGLOBIN [4] was 13.3 G/DL. For the same compound, the LYMPHOCYTE [4] was 87.5%, the “MEAN CORPUSCULAR HEMOGLOBIN CONCENTRATION” value [4] was 39.35 G/DL and the “MEAN CORPUSCULAR VOLUME” value [4] was 63.4 fL. The “NUCLEATED RED BLOOD CELLS” value [4] was 0 /100WBC, the “PLATELET COUNT” value [4] was 1064.5 x10E3/uL and the “ALANINE AMINOTRANSFERASE” value [4] was 87.5 u/L. The ALBUMIN [4] was 4.65 G/DL, the “ALKALINE PHOSPHATASE” value [4] was 418.5 u/L and the “ASPARTATE AMINOTRANSFERASE” value [4] was 104.5 u/L. The “BLOOD UREA NITROGEN” value [4] was 13 mg/dL, the “CARBON DIOXIDE” value [4] was 27 mmol/L and the “CREATINE PHOSPHOKINASE” value [4] was 307 u/L. The CREATININE [4] was 0.31 mg/dL, the “LACTATE DEHYDROGENASE” value [4] was 104 u/L and the “TOTAL BILIRUBIN” value [4] was 0.15 mg/dL. For the same compound, the “TOTAL PROTEIN” value [4] was 5.5 G/DL, the “URIC ACID” value [4] was 0.6 mg/dL and the “ABSOLUTE BASOPHIL” value [5] was 0 CELLS/uL. The “ABSOLUTE EOSINOPHIL” value [5] was 44 CELLS/uL, the “ABSOLUTE LYMPHOCYTE” value [5] was 10937 CELLS/uL and the “ABSOLUTE MONOCYTE” value [5] was 410.5 CELLS/uL. The “ABSOLUTE SEGMENTED NEUTROPHIL” value [5] was 2833.5 CELLS/uL, the BASOPHIL [5] was 0% and the EOSINOPHIL [5] was 0.25%. The “ERYTHROCYTE COUNT” value [5] was 6.03 x10E6/uL, the HEMATOCRIT [5] was 37.23% and the HEMOGLOBIN [5] was 15.3 G/DL. For the same compound, the LYMPHOCYTE [5] was 75.75%, the “MEAN CORPUSCULAR HEMOGLOBIN CONCENTRATION” value [5] was 41.35 G/DL and the “MEAN CORPUSCULAR VOLUME” value [5] was 61.7 fL. The “NUCLEATED RED BLOOD CELLS” value [5] was 0 /100WBC, the “PLATELET COUNT” value [5] was 961.5 x10E3/uL and the “ALANINE AMINOTRANSFERASE” value [5] was 233.5 u/L. For the same compound, the ALBUMIN [5] was 4.15 G/DL, the “ALKALINE PHOSPHATASE” value [5] was 474.75 u/L and the “ASPARTATE AMINOTRANSFERASE” value [5] was 132.75 u/L. The “BLOOD UREA NITROGEN” value [5] was 13 mg/dL, the “CARBON DIOXIDE” value [5] was 29 mmol/L and the “CREATINE PHOSPHOKINASE” value [5] was 233.75 u/L. For the same compound, the CREATININE [5] was 0.14 mg/dL, the “LACTATE DEHYDROGENASE” value [5] was 160.5 u/L and the “TOTAL BILIRUBIN” value [5] was 0.28 mg/dL. The “TOTAL PROTEIN” value [5] was 5.55 G/DL, the “ABSOLUTE BASOPHIL” value [6] was 0 CELLS/uL and the “ABSOLUTE EOSINOPHIL” value [6] was 0 CELLS/uL. For the same compound, the “ABSOLUTE LYMPHOCYTE” value [6] was 6863 CELLS/uL, the “ABSOLUTE MONOCYTE” value [6] was 370.5 CELLS/uL and the “ABSOLUTE SEGMENTED NEUTROPHIL” value [6] was 5116.5 CELLS/uL. The BASOPHIL [6] was 0%, the EOSINOPHIL [6] was 0% and the “ERYTHROCYTE COUNT” value [6] was 6.05 x10E6/uL. The HEMATOCRIT [6] was 35.15%, the HEMOGLOBIN [6] was 13.8 G/DL and the LYMPHOCYTE [6] was 55.5%. For the same compound, the “MEAN CORPUSCULAR HEMOGLOBIN CONCENTRATION” value [6] was 39.4 G/DL, the “MEAN CORPUSCULAR VOLUME” value [6] was 57.6 fL and the “NUCLEATED RED BLOOD CELLS” value [6] was 2 /100WBC. The “PLATELET COUNT” value [6] was 1590.5 x10E3/uL, the “ALANINE AMINOTRANSFERASE” value [6] was 283.5 u/L and the ALBUMIN [6] was 3 G/DL. For the same compound, the “ALKALINE PHOSPHATASE” value [6] was 812 u/L, the “ASPARTATE AMINOTRANSFERASE” value [6] was 328 u/L and the “BLOOD UREA NITROGEN” value [6] was 63 mg/dL. The “CARBON DIOXIDE” value [6] was 25 mmol/L, the “CREATINE PHOSPHOKINASE” value [6] was 1456.5 u/L and the CREATININE [6] was 0.58 mg/dL. For the same compound, the “LACTATE DEHYDROGENASE” value [6] was 638 u/L, the “TOTAL BILIRUBIN” value [6] was 2.9 mg/dL and the “TOTAL PROTEIN” value [6] was 5.7 G/DL.
